Test [1] has as its target muscle (α1)2βγδ nAChR subtype (Torpedo marmorata, UniProt P02711+Q6S3H8+Q6S3H9). In words: Two-electrode voltage clamp electrophysiology, antagonistic activity on Xenopus laevis oocytes having incorporated Torpedo muscle-type nAChR. To be noted: TEVC, value (95% CI), toxin purified by the applicant, Figure 5, read-out: nAChR subtype (nM; 95% CI) α12β1γδ (Torpedo). It is filed as cell-based. The source says: The emerging cyclic imines toxins (CiTXs) of global distribution across coastal environments that are produced by dinoflagellates move fast up the human food chain through shellfish. The CiTX family includes 44 compounds: 7 gymnodimines (A-E, 12-methylgymnodimine and 16-desmethyl gymnodimine D), 16 spirolides (A-D, G-I, 13-desmethyl spirolide-C, 27-Hydroxy-13-desmethyl spirolide-C, 13,19-didesmethyl spirolide-C, 20-hydroxy-13,19-didesmethyl spirolide- C, 27-hydroxy-13,19-spirolide-C, 27-Oxo-13,19-didesmethyl spirolide-C, 13-desmethyl spirolide-D, 20-hydroxy-13,19-didesmethyl spirolide-D and 20-methyl spirolide-G), 8 pinnatoxins (A-H), 3 pteriatoxins (A-C), 6 prorocentrolides (A-B, 4- hydroxyprorocentrolide, 9,51-dihydro prorocentrolide, 30-sulfate prorocentrolide and 14-O-acetyl-4-hydroxyprorocentrolide), 1 spiroprorocentrimine, 2 portimines (A and B), and 1 kabirimine, (Aráoz et al. (2020) Cyclic imine toxins survey in coastal european shellfish samples: Bioaccumulation and mode of action of 28-O-palmitoyl ester of pinnatoxin-G. First report of portimine-A bioaccumulation. Harmful Algae, 98 [1]). The spiroimine moiety is the major feature characterizing cyclic imine toxins. […]
On the technique in general: Two-electrode voltage clamp is typically applied to oocytes expressing channels or transporters.

Test [2] concerns HCT116 cells. As to the kind of experiment: JC-1 mitochondrial membrane potential assay (flow cytometry). The test is classed as cell-based, human. In general terms: Flow cytometry measures light scatter and fluorescence of single cells or particles in a stream.

The values below come from patent publication EP4624457A1, “I[…] DERIVATIVES, I[…] NEURODEGENERATIVE DISEASES” (Centre National de la Recherche Scientifique, priority 2024, dated 2025).

Chain of muscle (α1)2βγδ nAChR subtype (P02711 25-461): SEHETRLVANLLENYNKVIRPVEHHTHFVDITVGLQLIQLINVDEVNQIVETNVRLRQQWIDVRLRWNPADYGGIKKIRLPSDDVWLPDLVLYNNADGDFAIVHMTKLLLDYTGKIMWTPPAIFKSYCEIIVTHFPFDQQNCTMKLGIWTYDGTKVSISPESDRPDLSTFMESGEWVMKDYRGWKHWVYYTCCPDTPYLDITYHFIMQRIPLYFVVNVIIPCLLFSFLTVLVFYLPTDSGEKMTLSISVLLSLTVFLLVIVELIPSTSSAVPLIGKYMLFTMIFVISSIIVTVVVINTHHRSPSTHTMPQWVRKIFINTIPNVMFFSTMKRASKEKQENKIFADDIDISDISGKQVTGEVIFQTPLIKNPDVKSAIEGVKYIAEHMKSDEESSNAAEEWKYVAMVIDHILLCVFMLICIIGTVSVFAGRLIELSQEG
Chain of muscle (α1)2βγδ nAChR subtype (Q6S3H9 entry or part of it): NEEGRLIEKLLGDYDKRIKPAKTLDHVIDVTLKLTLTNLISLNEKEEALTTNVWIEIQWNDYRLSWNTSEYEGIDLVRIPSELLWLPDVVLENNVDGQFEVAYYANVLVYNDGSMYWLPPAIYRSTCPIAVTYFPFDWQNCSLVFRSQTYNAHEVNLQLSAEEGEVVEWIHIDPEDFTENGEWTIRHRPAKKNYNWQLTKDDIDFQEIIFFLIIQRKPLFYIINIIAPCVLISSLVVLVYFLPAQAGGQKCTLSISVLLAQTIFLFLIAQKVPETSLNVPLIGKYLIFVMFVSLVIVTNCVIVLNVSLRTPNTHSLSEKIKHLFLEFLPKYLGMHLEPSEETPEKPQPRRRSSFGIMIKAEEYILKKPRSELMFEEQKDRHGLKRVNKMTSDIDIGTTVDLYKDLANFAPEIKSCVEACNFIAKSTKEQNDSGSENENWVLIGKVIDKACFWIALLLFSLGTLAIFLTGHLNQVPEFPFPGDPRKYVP
Chain of muscle (α1)2βγδ nAChR subtype (Q6S3H8 entry or part of it): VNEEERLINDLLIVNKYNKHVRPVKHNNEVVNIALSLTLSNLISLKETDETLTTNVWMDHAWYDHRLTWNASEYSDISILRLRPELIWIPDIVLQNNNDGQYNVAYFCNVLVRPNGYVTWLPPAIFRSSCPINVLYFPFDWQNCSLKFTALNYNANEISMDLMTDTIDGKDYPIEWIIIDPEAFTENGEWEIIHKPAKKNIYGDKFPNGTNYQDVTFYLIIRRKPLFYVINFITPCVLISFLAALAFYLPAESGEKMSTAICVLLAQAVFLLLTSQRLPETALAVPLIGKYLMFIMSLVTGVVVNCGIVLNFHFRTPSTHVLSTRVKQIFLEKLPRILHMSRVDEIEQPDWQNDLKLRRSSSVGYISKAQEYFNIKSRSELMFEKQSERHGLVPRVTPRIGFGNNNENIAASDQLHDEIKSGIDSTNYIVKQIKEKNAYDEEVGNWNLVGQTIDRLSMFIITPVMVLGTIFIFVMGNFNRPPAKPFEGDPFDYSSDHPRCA
Chain of muscle (α1)2βγδ nAChR subtype (Q6S3I0 entry or part of it, further chain): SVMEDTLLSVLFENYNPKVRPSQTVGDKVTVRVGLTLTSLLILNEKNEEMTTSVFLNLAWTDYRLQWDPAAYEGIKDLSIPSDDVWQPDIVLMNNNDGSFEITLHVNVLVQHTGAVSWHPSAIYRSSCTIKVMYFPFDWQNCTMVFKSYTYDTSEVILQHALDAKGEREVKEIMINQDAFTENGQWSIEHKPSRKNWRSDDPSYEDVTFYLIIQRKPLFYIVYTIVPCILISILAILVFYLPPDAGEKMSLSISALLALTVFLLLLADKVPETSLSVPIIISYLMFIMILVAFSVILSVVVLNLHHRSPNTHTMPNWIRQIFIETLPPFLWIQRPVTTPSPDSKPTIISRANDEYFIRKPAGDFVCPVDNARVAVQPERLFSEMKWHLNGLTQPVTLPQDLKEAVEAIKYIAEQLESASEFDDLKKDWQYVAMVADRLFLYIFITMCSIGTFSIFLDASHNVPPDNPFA

Turning to `C=CC1=C[C@@H]2[C@@H]3O[C@]4(CC[C@H](O4)[C@@H](C)C[C@@H](O)C3=O)C[C@H](O)C3=NCC[C@@]32CC1` [Portimine-A], the IC50 in test [1] was 11900 nM. Further, the JC-1 % in test [2] (1 nM, 24 h, cells with mitochondrial membrane depolarization) is given as 5.1%; in test [2] (1 nM, 48 h), 8.1%; in test [2] (5 nM, 24 h), 9.2%.
